Key:
NHDFs = test: In vitro scratch assay (simulated wound closure, cell migration); assay type: cell-based, human; conditions: for time of wound closure of fibroblast compared to the control (growth media): after multiple different time intervals
Description: (§1) In Vitro Scratch Assay Cell migration was assessed through making a scratch on confluent monolayers of NHDFs and NHEKs. A total of 15×10^4 cells per well were seeded on a 24 well plate and left overnight to reach confluency. The cell layer was then scraped using a 200 μl pipet tip and any cell debris was washed away with PBS. The samples were supplemented with different concentration of the compounds of interest in growth media and incubated at 37° C. and 5% CO2 for 20 hours. Images were taken every 4 hours using a phase contrast Nikon Eclipse Ti-E inverted microscope. Quantification of percent wound healing was performed by measuring the gap distance using the following formula, [formula] where Wn is the width of gap after every 4 hours and W0 is the initial width zero right after forming a scratch. Capillary Tube Formation

NHEKs = test: as above; assay type: cell-based, human; conditions: for NHEK gap closure / level of wound closure vs control: compounds 10 and 20 μg/ml, extract 50 μg/ml, over 20 h, control growth media; for time of wound closure of keratinocyte compared to the control (growth media): after multiple different time intervals
Description: as §1

HUVECs = test: Capillary tube formation on matrigel; assay type: cell-based, human; conditions: 10 and 20 μg/ml
Description: [formula] where Wn is the width of gap after every 4 hours and W0 is the initial width zero right after forming a scratch. Capillary Tube Formation Matrigel kept in a −20° C. freezer and thawed on ice overnight in a 4° C. refrigerator. A total of 50 μl of thawed matrigel was added to each well of pre-chilled 96-well plate and then incubated for 30 min at 37° C. to form a gel. Next, 100 μl of a HUVEC cell suspension (passage 2-6) in conditioned media (20000 cell/well) including the compounds of this invention was added to gel and incubated at 37° C. for 8 hours. The number of junctions in tubes was examined using a phase contrast inverted microscope (Invitrogen EVOS FL Auto Cell Imaging) and compared to the conditions with no compound (negative control).

[1] = system: Human Umbilical Vein Endothelial Cells (HUVECs); test: Cytotoxicity assay (MTS), cell viability/proliferation; assay type: cell-based; conditions: 24 h exposure, 10, 20, 50 and 100 μg/ml, vs control and DMSO vehicle control
Description: (§2) Human Umbilical Vein Endothelial cells (HUVEC), Adult Normal Human Epidermal Keratinocytes (NHEK), Normal Human Dermal fibroblast (NHDF) and related media for cell culture including endothelial basal and growth medium-2 (EBM-2, EGM-2), keratinocyte basal and growth medium-2 (KBM-2, KGM™-2), fibroblast basal and growth medium (FBM, FGM™) were purchased from Lonza. The cell types were selected due to their important physiologic role in early and late stages of wound healing. Cells were incubated at 37° C. and 5% CO2 throughout the examples. Phosphate-Buffered Saline (PBS), [3-(4,5-dimethylthiazol-2-yl)-5-(3-carboxymethoxyphenyl)-2-(4-sulfophenyl)-2H-tetrazolium (MTS) (Promega) colorimetric assay and growth factor reduced matrigel BD (Corning) were from Sigma-Aldrich.
(§3) In order to determine cell viability, HUVECs, NHDFs, and NHEKs were cultured in their growth media to reach 80% confluency. Cells were seeded at the density of 5×10^3 cell per 96 well plate in a total volume of 100 μl in each well. After seeding, the cells were incubated for 24 hours at 37° C. and 5% CO2 to allow for cell attachment. Media was changed and replaced with media supplemented with the desired concentration of the test compounds (10, 20, 50 and 100 μg/ml), being first dissolved at 10 mg/ml in DMSO and subsequently diluted in culture media. The vehicle control was culture medium supplemented with DMSO 0.5% (Macron Fine Chemicals), representing the highest final concentration of DMSO used to dissolve the natural compound. Following 24 hours of incubation, […] and incubated for 2 hours.

[2] = system: Normal Human Dermal Fibroblasts (NHDFs); test: as above; assay type: cell-based; conditions: 24 h exposure, 10, 20, 50 and 100 μg/ml, vs control and DMSO vehicle control
Description: as §2, §3

[3] = system: Normal Human Epidermal Keratinocytes (NHEKs); test: as above; assay type: cell-based; conditions: 24 h exposure, 10, 20, 50 and 100 μg/ml, vs control and DMSO vehicle control
Description: as §2, §3

| Compound | NHDF gap closure / migration into the scratched gap vs control (NHDFs; NHDFs, compounds 10 and 20 μg/ml, extract 50 μg/ml, over 20 h) | time of wound closure of fibroblast compared to the control (growth media) (NHDFs) | percentage of gap closed (simulated wound closure) (NHEKs; NHEKs, 10 μg/ml, 6 h) | NHEK gap closure / level of wound closure vs control (NHEKs; NHEKs) | NHEK migration rate at higher concentration (NHEKs; NHEKs, higher concentration (20 μg/ml) vs 10 μg/ml) | time of wound closure of keratinocyte compared to the control (growth media) (NHEKs) | capillary tube (tubule) formation, phase contrast microscopy (HUVECs) | toxicity (cell viability, MTS assay) [1] | toxicity (cell viability, MTS assay) [2] | toxicity (cell viability, MTS assay) [3] | NHDF gap closure (NHDFs; NHDFs, 10 μg/ml, all time points up to 20 h) | NHDF wound closure at higher concentration (NHDFs; NHDFs, higher concentration (20 μg/ml), early time points) | number of junctions relative to control groups (HUVECs; 8 h) |
| --- | --- | --- | --- | --- | --- | --- | --- | --- | --- | --- | --- | --- | --- |
| O=C(/C=C/c1ccc(O)c(O)c1)O[C@@H]1C[C@](O)(C(=O)O)C[C@@H](O)[C@H]1O [3-O-caffeoylquinic acid] | delayed effect on NHDF gap closure at 20 h post-seeding | reduced time of wound closure | approximately 40% | highest level of wound closure | did not lead to a faster migration rate | reduced time of wound closure | formation of tubules assembled by the elongation and joining of HUVECs | – | – | – | – | – | – |
| C[C@H]1O[C@@H](Oc2c(-c3cc(O)c(O)c(O)c3)oc3cc(O)cc(O)c3c2=O)[C@@H](O)[C@@H](O)[C@@H]1O [myricetin-3-o-ß-rhamnoside] | – | reduced time of wound closure | – | Neither myricetin-3-o-ß-rhamnoside nor total P. persica extract led to a significantly higher NHEK gap closure than the control | – | reduced time of wound closure | formation of tubules assembled by the elongation and joining of HUVECs | No toxicity was observed | No toxicity was observed | No toxicity was observed | accelerated gap closure at all time points | negative effect on wound closure during early time points | approximately 3 fold |
